The results in this text go back to patent US20230365533A1, “BICYCLOHEPTANE PYRROLIDINE OREXIN RECEPTOR AGONISTS” (MERCK SHARP & DOHME CORP., priority 2021, published 2023).

The assay deals with T1, human OX2R (Homo sapiens, UniProt O43614).
T1 construct: expressed in transfected cells; host or cells: CHO (Chinese hamster ovary) cells, grown under G418 selection
T1 sequence (O43614 1-444): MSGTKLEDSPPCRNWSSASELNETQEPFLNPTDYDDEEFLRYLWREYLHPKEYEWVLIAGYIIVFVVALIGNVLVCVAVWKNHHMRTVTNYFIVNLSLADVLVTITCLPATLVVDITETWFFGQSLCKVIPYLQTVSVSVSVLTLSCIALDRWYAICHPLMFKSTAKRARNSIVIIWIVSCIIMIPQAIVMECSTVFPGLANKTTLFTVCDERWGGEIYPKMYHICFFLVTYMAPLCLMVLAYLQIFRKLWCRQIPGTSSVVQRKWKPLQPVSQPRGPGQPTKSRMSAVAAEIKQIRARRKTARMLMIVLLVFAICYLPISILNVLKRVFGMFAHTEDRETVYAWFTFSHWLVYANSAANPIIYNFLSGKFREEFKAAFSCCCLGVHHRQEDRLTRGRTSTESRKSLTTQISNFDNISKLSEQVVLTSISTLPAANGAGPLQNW
The assay can be described thus: IPOne (IP-1) orexin receptor agonist assay in CHO cells expressing human OX2R. It is filed as cell-based. Particulars: IPOne assay, CHO cells expressing human OX2R, 2 hours incubation; read-out: hoX2R_IP IC50. An outline of the steps:
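CHO cells with human OX2R treated 2 h at 37 °C with 10-point ½-log compound dilutions in stimulation buffer; IP-1 accumulation read by HTRF (665/620 nm) after 60 min detection. EC50 from four-parameter fit; % effect versus a 1 uM reference agonist.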

As a reminder, the IC50 is the point on the concentration scale where inhibition reaches its midpoint.

For `COC(=O)N1[C@H](C)C[C@H](NS(=O)(=O)CF)[C@@H]1COC1CCC2(c3ncc(Cl)cn3)CC2C1` (stereo partly drawn) [Example 94, methyl (2R,3S,5R)-2-(((6-(5-chloropyrimidin-2-yl)bicyclo[4.1.0]heptan-3-yl)oxy)methyl)-3-((fluoromethyl)sulfonamido)-5-methylpyrrolidine-1-carboxylate], the IC50 amounted to 1.7 nM.
The value for `CC(C)OC(=O)N1[C@H](C)C[C@H](NS(=O)(=O)CF)[C@@H]1COC1CCC2(c3ncc(Cl)cn3)CC2C1` (stereo partly drawn) [Example 107, isopropyl (2R,3S,5R)-2-(((6-(5-chloropyrimidin-2-yl)bicyclo[4.1.0]heptan-3-yl)oxy)methyl)-3-((fluoromethyl)sulfonamido)-5-methylpyrrolidine-1-carboxylate] was 4.5 nM; that for `CC(C)OC(=O)N1[C@H](C)C[C@H](NS(=O)(=O)CF)[C@@H]1COC1CCC2(c3ncc(Br)cn3)CC2C1` (stereo partly drawn) [Example 108, isopropyl (2R,3S,5R)-2-(((6-(5-bromopyrimidin-2-yl)bicyclo[4.1.0]heptan-3-yl)oxy)methyl)-3-((fluoromethyl)sulfonamido)-5-methylpyrrolidine-1-carboxylate] was 7.4 nM; that for `CC(C)OC(=O)N1[C@H](C)C[C@H](NS(=O)(=O)C(F)F)[C@@H]1COC1CCC2(c3ncc(F)cn3)CC2C1` (stereo partly drawn) [Example 109, isopropyl (2R,3S,5R)-3-((difluoromethyl)sulfonamido)-2-(((6-(5-fluoropyrimidin-2-yl)bicyclo[4.1.0]heptan-3-yl)oxy)methyl)-5-methylpyrrolidine-1-carboxylate] was 3.5 nM.
The value for `CC(C)OC(=O)N1[C@H](C)C[C@H](NS(=O)(=O)CF)[C@@H]1COC1CCC2(c3ncc(F)cn3)CC2C1` (stereo partly drawn) [Example 111, isopropyl (2R,3S,5R)-3-((fluoromethyl)sulfonamido)-2-(((6-(5-fluoropyrimidin-2-yl)bicyclo[4.1.0]heptan-3-yl)oxy)methyl)-5-methylpyrrolidine-1-carboxylate] was 1 nM; that for `COC(=O)N1[C@H](C(F)F)C[C@H](NS(=O)(=O)C2CC2)[C@@H]1COC1CCC2(c3ncc(F)cn3)CC2C1` (stereo partly drawn) [Example 116, methyl (2R,3S,5S)-3-(cyclopropanesulfonamido)-5-(difluoromethyl)-2-(((6-(5-fluoropyrimidin-2-yl)bicyclo[4.1.0]heptan-3-yl)oxy)methyl)pyrrolidine-1-carboxylate] was 2.3 nM; that for `CCS(=O)(=O)N[C@H]1C[C@@H](C(F)F)N(C(=O)OC)[C@H]1COC1CCC2(c3ncc(F)cn3)CC2C1` (stereo partly drawn) [Example 117, methyl (2R,3S,5S)-5-(difluoromethyl)-3-(ethylsulfonamido)-2-(((6-(5-fluoropyrimidin-2-yl)bicyclo[4.1.0]heptan-3-yl)oxy)methyl)pyrrolidine-1-carboxylate] was 1.2 nM.
The value for `CC(C)OC(=O)N1[C@H](C(F)F)C[C@H](NS(C)(=O)=O)[C@@H]1CO[C@H]1CC[C@@]2(c3ncc(F)cn3)C[C@H]2C1` [Example 119, isopropyl (2R,3S,5S)-5-(difluoromethyl)-2-((((1S,3S,6R)-6-(5-fluoropyrimidin-2-yl)bicyclo[4.1.0]heptan-3-yl)oxy)methyl)-3-(methylsulfonamido)pyrrolidine-1-carboxylate] was 1.4 nM; that for `COC(=O)N1[C@H](C(F)F)C[C@H](NS(=O)(=O)C(C)C)[C@@H]1COC1CCC2(c3ncc(F)cn3)CC2C1` (stereo partly drawn) [Example 120, methyl (2R,3S,5S)-5-(difluoromethyl)-2-(((6-(5-fluoropyrimidin-2-yl)bicyclo[4.1.0]heptan-3-yl)oxy)methyl)-3-((1-methylethyl)sulfonamido)pyrrolidine-1-carboxylate] was 2.4 nM; that for `CC(C)OC(=O)N1CCC[C@H](NS(=O)(=O)C(F)F)[C@@H]1CO[C@H]1CC[C@@]2(c3ncc(F)cn3)C[C@H]2C1` [Example 121, isopropyl (2R,3S)-3-((difluoromethyl)sulfonamido)-2-((((1S,3S,6R)-6-(5-fluoropyrimidin-2-yl)bicyclo[4.1.0]heptan-3-yl)oxy)methyl)piperidine-1-carboxylate] was 0.86 nM.
Take `CC(C)OC(=O)N1CCC[C@H](NS(=O)(=O)C2CC2)[C@@H]1COC1CCC2(c3ncc(F)cn3)CC2C1` (stereo partly drawn) [Example 122, isopropyl (2R,3S)-3-(cyclopropanesulfonamido)-2-(((6-(5-fluoropyrimidin-2-yl)bicyclo[4.1.0]heptan-3-yl)oxy)methyl)piperidine-1-carboxylate]: the IC50 is 6.1 nM.
Turning to `CC(C)OC(=O)N1CCC[C@H](NS(=O)(=O)C(F)(F)F)[C@@H]1COC1CC[C@@]2(c3ncc(F)cn3)CC2C1` (stereo partly drawn) [Example 123, isopropyl (2R,3S)-2-(((6-(5-fluoropyrimidin-2-yl)bicyclo[4.1.0]heptan-3-yl)oxy)methyl)-3-((trifluoromethyl)sulfonamido)piperidine-1-carboxylate], the IC50 is 4.1 nM.
The value for `CCS(=O)(=O)N[C@H]1CCCN(C(=O)OC(C)C)[C@H]1COC1CC[C@@]2(c3ncc(F)cn3)CC2C1` (stereo partly drawn) [Example 126, isopropyl (2R,3S)-3-(ethylsulfonamido)-2-(((6-(5-fluoropyrimidin-2-yl)bicyclo[4.1.0]heptan-3-yl)oxy)methyl)piperidine-1-carboxylate] was 3.3 nM; that for `COC(=O)N1[C@@H]2CCC[C@@H]2[C@H](NS(=O)(=O)C2CC2)[C@@H]1COC1CCC2(c3ncc(F)cn3)CC2C1` (stereo partly drawn) [Example 128, methyl (2R,3S,3aS,6aR)-3-(cyclopropanesulfonamido)-2-(((6-(5-fluoropyrimidin-2-yl)bicyclo[4.1.0]heptan-3-yl)oxy)methyl)hexahydrocyclopenta[b]pyrrole-1(2H)-carboxylate] was 1.8 nM.
In the case of `CCS(=O)(=O)N[C@H]1[C@H]2CCC[C@H]2N(C(=O)OC)[C@H]1COC1CCC2(c3ncc(F)cn3)CC2C1` (stereo partly drawn) [Example 129, methyl (2R,3S,3aS,6aR)-3-(ethylsulfonamido)-2-(((6-(5-fluoropyrimidin-2-yl)bicyclo[4.1.0]heptan-3-yl)oxy)methyl)hexahydrocyclopenta[b]pyrrole-1(2H)-carboxylate], the IC50 is 0.9 nM.
To `COC(=O)N1[C@@H]2CCC[C@@H]2[C@H](NS(=O)(=O)CF)[C@@H]1COC1CCC2(c3ncc(F)cn3)CC2C1` (stereo partly drawn) [Example 130, methyl (2R,3S,3aS,6aR)-3-((fluoromethyl)sulfonamido)-2-(((6-(5-fluoropyrimidin-2-yl)bicyclo[4.1.0]heptan-3-yl)oxy)methyl)hexahydrocyclopenta[b]pyrrole-1(2H)-carboxylate] belongs 1.4 nM; to `COC[C@@H]1C[C@H](NS(C)(=O)=O)[C@H](CO[C@H]2CC[C@@]3(c4ncc(F)cn4)C[C@H]3C2)N1C(=O)OC` [Example 132, methyl (2R,3S,5S)-2-((((1S,3S,6R)-6-(5-fluoropyrimidin-2-yl)bicyclo[4.1.0]heptan-3-yl)oxy)methyl)-5-(methoxymethyl)-3-(methylsulfonamido)pyrrolidine-1-carboxylate], 9.7 nM.
In the case of `COC(=O)N1[C@H](C)C[C@H](NS(C)(=O)=O)[C@@H]1COC1CCC2(c3ncc(F)cn3)CC2C1` (stereo partly drawn) [Example 135, methyl (2R,3S,5R)-2-(((6-(5-fluoropyrimidin-2-yl)bicyclo[4.1.0]heptan-3-yl)oxy)methyl)-5-methyl-3-(methylsulfonamido)pyrrolidine-1-carboxylate], the concentration for half-maximal inhibition (IC50) came out at 6.3 nM.
The value for `COC(=O)N1[C@H](C)C[C@H](NS(C)(=O)=O)[C@@H]1COC1CCC2(c3ncc(Cl)cn3)CC2C1` (stereo partly drawn) [Example 140, methyl (2R,3S,5R)-2-(((6-(5-chloropyrimidin-2-yl)bicyclo[4.1.0]heptan-3-yl)oxy)methyl)-5-methyl-3-(methylsulfonamido)pyrrolidine-1-carboxylate] was 11.1 nM; that for `COC(=O)N1[C@H](C)C[C@H](NS(C)(=O)=O)[C@@H]1COC1CCC2(c3nccs3)CC2C1` (stereo partly drawn) [Example 149, methyl (2R,3S,5R)-5-methyl-3-(methylsulfonamido)-2-(((6-(thiazol-2-yl)bicyclo[4.1.0]heptan-3-yl)oxy)methyl)pyrrolidine-1-carboxylate] was 179 nM; that for `CC(C)OC(=O)N1[C@H](C)C[C@H](NS(C)(=O)=O)[C@@H]1COC1CCC2(c3ncc(Cl)cn3)CC2C1` (stereo partly drawn) [Example 154, isopropyl (2R,3S,5R)-2-(((6-(5-chloropyrimidin-2-yl)bicyclo[4.1.0]heptan-3-yl)oxy)methyl)-5-methyl-3-(methylsulfonamido)pyrrolidine-1-carboxylate] was 16.9 nM.
The value for `COC(=O)N1[C@H](C)C[C@H](NS(C)(=O)=O)[C@@H]1COC1CCC2(c3ncc(C)cn3)CC2C1` (stereo partly drawn) [Example 159, methyl (2R,3S,5R)-5-methyl-2-(((6-(5-methylpyrimidin-2-yl)bicyclo[4.1.0]heptan-3-yl)oxy)methyl)-3-(methylsulfonamido)pyrrolidine-1-carboxylate] was 79.4 nM; that for `CC(C)OC(=O)N1[C@H](C)C[C@H](NS(=O)(=O)N(C)C)[C@@H]1COC1CCC2(c3ncc(F)cn3)CC2C1` (stereo partly drawn) [Example 164, isopropyl (2R,3S,5R)-3-((N,N-dimethylsulfamoyl)amino)-2-(((6-(5-fluoropyrimidin-2-yl)bicyclo[4.1.0]heptan-3-yl)oxy)methyl)-5-methylpyrrolidine-1-carboxylate] was 2.6 nM.
